Here are results for five molecules from patent US9624247B2, “Pyrazolo-pyrrolidin-4-one derivatives as bet inhibitors and their use in the treatment of disease” (NOVARTIS AG, priority 2013, dated 2017).

Bounds are passed on as bounds.

The target in test [1] is BRD4 (His-Brd4(44-477)) (Homo sapiens (Human), UniProt O60885). Put plainly: TR-FRET in-vitro binding assay for BRD4. The settings on record: acetyl-histone H4 peptide. The procedure: (§1) TR-FRET In-Vitro Binding Assays for BRD2, BRD3, and BRD4:
(§2) All assays were performed in 384 well microtiter plates. Each assay plate contained 8-point serial dilutions for 40 test compounds, plus 16 high- and 16 low controls. Liquid handling and incubation steps were done on an Innovadyne Nanodrop Express equipped with a robotic arm (Thermo CatX, Perkin Elmer/Caliper Twister II) and an incubator (Liconic STX40, Thermo Cytomat 2C450). The assay plates were prepared by addition of 50 nl per well of compound solution in 90% DMSO HummingBird nanodispenser (Zinsser Analytic). The assay was started by stepwise addition of 4.5 μl per well of bromo domain protein (50 mM HEPES, pH 7.5, 0.005% Tween20, 0.1% BSA, 50 mM NaCl, 45 nM His-Brd2(60-472) or 45 nM His-Brd3(20-477) or 45 nM His-Brd4(44-477) all proteins produced in-house) and 4.5 μl per well of peptide solution (50 mM HEPES, pH 7.5, 0.005% Tween20, 0.1% BSA, 50 mM NaCl, 60 nM acetyl-histone H4 (AcK 5, 8, 12, 16) (Biosyntan GmbH)). Reactions were incubated at 30° C. for 35 minutes. […] After 35 minutes incubation at 30° C., plates were measured in a Perkin Elmer EnVision multilabel reader. Concentrations causing 50% inhibition (IC50 values) were determined from percent inhibition values at different compound concentrations by non-linear regression analysis.
(§3) Preparation of Compound Dilutions
(§4) Test compounds were dissolved in DMSO (10 mM) and transferred into 1.4 mL flat bottom or V-shaped Matrix tubes carrying a unique 2D matrix. The stock solutions were stored at […] if not used immediately. For the test procedure the vials were defrosted and identified by a scanner whereby a working sheet was generated that guided the subsequent working steps. Compound dilutions were made in 96 well plates. This format enabled the assay of maximally 40 individual test compounds at 8 concentrations (single points) including 4 reference compounds, if desired (known BET inhibitors from the prior art, for this and other assays of the type disclosed herein). The dilution protocol included the production of “pre-dilution plates”, “master plates” and “assay plates”.
(§5) Pre-dilution plates: 96 polypropylene well plates were used as pre-dilution plates. A total of 4 pre-dilution plates were prepared including 10 test compounds each on the plate positions A1-A10, one standard compound at A11 and one DMSO control at A12. All dilution steps were done on a HamiltonSTAR robot.
(§6) Master plates: 30 μL of individual compound dilutions including standard compound and controls of the 4 “pre-dilution plates” were transferred into a 384 “master plate” including the following concentrations 10000, 3003, 1000, 300, 100, 30, 10 and 3 μM, respectively in 90% of DMSO.
(§7) Assay plates: Identical “assay plates” were then prepared by pipetting 50 nL each of compound dilutions of the “master plates” into 384-well “assay plates” by means of a HummingBird 384-channel dispenser. These plates were used directly for the assay which was performed in a total volume of 13.55 μL. This led to a final compound concentration of 37, 11, 3.7, 1.1, 0.37, 0.11, 0.037 and 0.011 μM and a final DMSO concentration of 0.37% in the assay.
In general terms: In TR-FRET formats the signal depends on donor and acceptor labels being close together.

Test [2] concerns the target BRD2 (His-Brd2(60-472)) (Homo sapiens (Human), UniProt P25440). Put plainly: TR-FRET in-vitro binding assay for BRD2. The settings on record: acetyl-histone H4 peptide. The method, then:
as §1, §2, §3, §4, §5, §6, §7

Test [3] concerns the target BRD3 (His-Brd3(20-477)) (Homo sapiens (Human), UniProt Q15059). Put plainly: TR-FRET in-vitro binding assay for BRD3. As to conditions: acetyl-histone H4 peptide. The procedure: as §1
All assays were performed in 384 well microtiter plates. Each assay plate contained 8-point serial dilutions for 40 test compounds, plus 16 high- and 16 low controls. Liquid handling and incubation steps were done on an Innovadyne Nanodrop Express equipped with a robotic arm (Thermo CatX, Perkin Elmer/Caliper Twister II) and an incubator (Liconic STX40, Thermo Cytomat 2C450). The assay plates were prepared by addition of 50 nl per well of compound solution in 90% DMSO HummingBird nanodispenser (Zinsser Analytic). […] Reactions were incubated at 30° C. for 35 minutes. […] After 35 minutes incubation at 30° C., plates were measured in a Perkin Elmer EnVision multilabel reader.
as §3, §4, §5
(§8) These plates were used directly for the assay which was performed in a total volume of 13.55 μL.

The target in test [4] is CREBBP bromodomain (His-CREBBP(1081-1197)) (Homo sapiens (Human), UniProt Q92793). The test can be described thus: AlphaScreen in-vitro binding assay for CREBBP. As to conditions: AlphaScreen, acetyl-histone H4 peptide; read-out: CREBBP IC50. The procedure: AlphaScreen In-Vitro Binding Assay for CREBBP
In order to assess bromodomain selectivity, we set up a binding assay using the bromodomain encoded by the CREBBP gene. […] Reactions were incubated at 30° C. for 35 minutes. Subsequently 4.5 μl per well detection mix (50 mM HEPES, pH 7.5, 0.005% Tween20, 0.02% BSA, 150 mM NaCl, 45 μg/ml Ni-chelate acceptor beads, 45 μg/ml streptavidin-donor beads) (Perkin Elmer)) were added. After 60 minutes incubation at room temperature, plates were measured in a Perkin Elmer EnVision multilabel reader. IC50 values were determined from percent inhibition values at different compound concentrations by non-linear regression analysis.
as §3, §4, §5, §8

The test system of test [5] is MV-4-11 cells. Put plainly: Cell growth inhibition assay (CellTiter-Glo), MV-4-11. The format is cell-based, human. The settings on record: MV-4-11, 4 days; for GI50: Homo sapiens, MV4-11, 96 h, half-maximal growth inhibition; for MV-4-11 TGI: total growth inhibition. The method, then: (§9) Cell Growth Inhibition Assay
(§10) The human leukemia cell lines MV-4-11, THP-1 and K-562 were employed to characterize the effect of BET inhibitors on cellular proliferation and viability. Cells were obtained from the American Type Culture Collection (ATCC) and cultured at 37° C. in a humidified 5% CO2 incubator in the following media: MV-4-11: DMEM high glucose (Animed #1-26F01-I), 10% FCS (Animed #2-01F26-I), 4 mM L-Glutamine (Animed #5-10K50), 1 mM Sodium Pyruvate (Animed #G03625P), lx Penicillin-Streptomycin (Animed #F12478P); K-562: Iscove's MEM (Animed #1-28F16-I), 10% FCS (Animed #2-01F26-I), 4 mM L-Glutamine (Animed #5-10K50), 1× Penicillin-Streptomycin (Animed #F12478P); THP-1: RPMI-1640 (Animed #1-41F01-I), 10% FCS (Animed #2-01F26-I), 2 mM L-Glutamine (Animed #5-10K50), 10 mM HEPES (Animed #5-31F100), 1 mM Sodium Pyruvate (Animed #G03625P), 1× Penicillin-Streptomycin (Animed #F12478P). The AML lines MV-4-11 and THP-1 are very sensitive to BET inhibitors and show massive cell death upon BET inhibition (Zuber et al., Nature, 478 (2011), 524-8). Compound-mediated suppression of cell proliferation/viability was assessed by quantification of cellular ATP levels using the CellTiter-Glo (CTG) reagent (Promega). Briefly, cells were seeded in 20 μl fresh medium into 384-well plates, followed by addition of 5 μl medium containing compound dilutions at 5-fold their final intended concentration. Dose-response effects were assessed by 3-fold serial dilutions of the test compound, starting at 10 μM. Following incubation of the cells for 4 days at 37° C. and 5% CO2, the effect of inhibitors on cell viability was quantified following addition of 20 μl CTG and luminescence quantification (integration time: 100 ms) as per vendor manual, using a correspondingly equipped Tecan M200 multi-mode platereader (TECAN, Switzerland). For data analysis, the assay background value determined in wells containing medium, but no cells, was subtracted from all data points. To enable differentiation of cytotoxic from cytostatic compounds, the number of viable cells is assessed relative to that observed at the time of compound addition using a separate cell plate (day 0). The effect of a particular test compound concentration on cell proliferation/viability is expressed as percentage of the background- and day 0-corrected luminescence reading obtained for cells treated with vehicle only (DMSO, 0.1% final concentration), which is set as 100%, whereas that luminescence reading for wells containing medium is set as −100%. Compound concentrations leading to half-maximal (IC50) and total growth inhibition (TGI) were determined using standard four parameter curve fitting.
On the technique in general: ATP-based viability assays read luminescence as a measure of living cells.

The subject of test [6] is THP-1 cells. The test can be described thus: Cell growth inhibition assay (CellTiter-Glo), THP-1. In kind it is cell-based, human. As to conditions: THP-1, 4 days; for GI50: Homo sapiens, 96 h, half-maximal growth inhibition; for THP-1 TGI: total growth inhibition. The procedure:
as §9, §10

The test system of test [7] is K-562 cells. Put plainly: Cell growth inhibition assay (CellTiter-Glo), K-562. In kind it is cell-based, human. As to conditions: K-562, 4 days; for GI50: Homo sapiens, K562, 96 h, half-maximal growth inhibition; for K-562 TGI: total growth inhibition. The procedure: as §9, §10

What is called IC50 is the midpoint of a concentration-inhibition curve. A word on the GI50: it is the concentration at which growth is held to half of that of the control. Lower therefore signals greater sensitivity of the cells.

Sequence of BRD2 (His-Brd2(60-472)) (P25440 60-472): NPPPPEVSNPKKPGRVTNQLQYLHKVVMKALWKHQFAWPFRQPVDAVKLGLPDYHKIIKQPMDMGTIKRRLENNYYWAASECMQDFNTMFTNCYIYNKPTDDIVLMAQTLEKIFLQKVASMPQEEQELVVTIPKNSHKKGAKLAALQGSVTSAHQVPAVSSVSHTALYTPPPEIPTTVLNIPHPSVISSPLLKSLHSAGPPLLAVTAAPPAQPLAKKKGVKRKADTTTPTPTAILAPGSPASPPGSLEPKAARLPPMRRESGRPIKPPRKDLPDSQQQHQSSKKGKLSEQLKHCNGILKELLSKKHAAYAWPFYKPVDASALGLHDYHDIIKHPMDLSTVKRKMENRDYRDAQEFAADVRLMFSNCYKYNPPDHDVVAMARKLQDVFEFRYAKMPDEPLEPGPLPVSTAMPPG
Sequence of BRD3 (His-Brd3(20-477)) (Q15059 20-477): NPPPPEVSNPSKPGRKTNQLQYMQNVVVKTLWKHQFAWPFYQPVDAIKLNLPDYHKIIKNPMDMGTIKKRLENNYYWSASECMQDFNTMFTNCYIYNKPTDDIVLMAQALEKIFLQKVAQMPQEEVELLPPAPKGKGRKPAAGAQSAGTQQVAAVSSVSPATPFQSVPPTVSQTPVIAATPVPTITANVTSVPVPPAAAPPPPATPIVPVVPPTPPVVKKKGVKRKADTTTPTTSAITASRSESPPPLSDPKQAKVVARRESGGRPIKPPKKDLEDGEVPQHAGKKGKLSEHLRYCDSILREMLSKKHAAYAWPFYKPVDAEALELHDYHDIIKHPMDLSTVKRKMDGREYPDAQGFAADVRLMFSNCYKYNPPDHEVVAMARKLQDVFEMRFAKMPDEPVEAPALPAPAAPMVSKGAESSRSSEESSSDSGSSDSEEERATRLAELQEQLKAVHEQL
Sequence of CREBBP bromodomain (His-CREBBP(1081-1197)) (Q92793 1081-1197): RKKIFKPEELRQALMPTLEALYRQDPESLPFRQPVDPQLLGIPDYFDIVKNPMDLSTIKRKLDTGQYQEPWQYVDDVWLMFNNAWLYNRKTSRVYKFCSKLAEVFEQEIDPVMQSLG

With `COc1cc(N2C(=O)c3c(C4CC4)nn(C)c3[C@H]2c2ccc(Cl)cc2)cn2c(C)nnc12` [Example 14, (R)-6-(4-chlorophenyl)-3-cyclopropyl-5-(8-methoxy-3-methyl-[1,2,4]triazolo[4,3-a]-pyridin-6-yl)-1-methyl-5,6-dihydropyrrolo[3,4-c]pyrazol-4(1H)-one], the IC50 in test [1] was 30 nM; in test [2], 57 nM; in test [3], 55 nM; in test [4], 27500 nM. The GI50 in test [5] is 20.1 nM; in test [6], 51.4 nM; in test [7] it was 152 nM. Also, in test [5], the “MV-4-11 TGI” value worked out at 39.55 nM. Besides, the “THP-1 TGI” value in test [6] was 118.5 nM. Further, the “K-562 TGI” value in test [7] was more than 10000 nM.

Consider `COCCn1nc(C2CC2)c2c1[C@@H](c1ccc(Cl)cc1)N(c1cc(C)c3nnc(C)n3c1)C2=O` [Example 15, (R)-6-(4-chlorophenyl)-3-cyclopropyl-5-(3,8-dimethyl-[1,2,4]triazolo[4,3-a]pyridin-6-yl)-1-(2-methoxyethyl)-5,6-dihydropyrrolo[3,4-c]pyrazol-4(1H)-one], for which the IC50 in test [1] was 18 nM; in test [2], 20 nM; in test [3] it was 16 nM; in test [4], 6100 nM. The GI50 in test [5] was 2.41 nM; in test [6], 6.42 nM; in test [7], 26.5 nM. Besides, the “MV-4-11 TGI” value in test [5] came to 5.79 nM. Moreover, the “THP-1 TGI” value in test [6] worked out at 13.9 nM. Moreover, the “K-562 TGI” value in test [7] was more than 10000 nM.

Take `Cc1cc(N2C(=O)c3c(C4CC4)nn(C)c3[C@H]2c2ccc(Cl)cc2)cn2c(CF)nnc12` [Example 17, (R)-6-(4-chlorophenyl)-3-cyclopropyl-5-(3-(fluoromethyl)-8-methyl-[1,2,4]triazolo-[4,3-a]pyridin-6-yl)-1-methyl-5,6-dihydropyrrolo[3,4-c]pyrazol-4(1H)-one]: the IC50 in test [1] was less than 11 nM; in test [2], 11 nM; in test [3], less than 11 nM; in test [4], 9800 nM. The GI50 worked out at 4.28 nM in test [5], 9.68 nM in test [6] and 63.1 nM in test [7]. The “MV-4-11 TGI” value in test [5] was found to be 9.765 nM. In addition, the “THP-1 TGI” value in test [6] was determined as 24.7 nM. In addition, the “K-562 TGI” value in test [7] was more than 10000 nM.

For the molecule `Cc1cc(N2C(=O)c3c(C4CC4)nn(C[C@@H](O)C(F)(F)F)c3[C@H]2c2ccc(Cl)cc2)cn2c(C)nnc12` [Example 19, (R)-6-(4-chlorophenyl)-3-cyclopropyl-5-(3,8-dimethyl-[1,2,4]triazolo[4,3-a]pyridin-6-yl)-1-((R)-3,3,3-trifluoro-2-hydroxypropyl)-5,6-dihydropyrrolo[3,4-c]pyrazol-4(1H)-one], the concentration for half-maximal inhibition (IC50) came out at 23 nM in test [1], 29 nM in test [2], 25 nM in test [3] and 9400 nM in test [4]. The GI50 is 5.23 nM in test [5], 14.7 nM in test [6] and 58.4 nM in test [7]. In addition, in test [5], the “MV-4-11 TGI” value came to 11.3 nM. Moreover, in test [6], the “THP-1 TGI” value turned out to be 36.6 nM. For the same molecule, the “K-562 TGI” value in test [7] is more than 10000 nM.

As for `Cc1cc(N2C(=O)c3c(C4CC4)nn(C[C@H](O)C(F)(F)F)c3[C@H]2c2ccc(Cl)cc2)cn2c(C)nnc12` [Example 20, (R)-6-(4-chlorophenyl)-3-cyclopropyl-5-(3,8-dimethyl-[1,2,4]triazolo[4,3-a]pyridin-6-yl)-1-((S)-3,3,3-trifluoro-2-hydroxypropyl)-5,6-dihydropyrrolo[3,4-c]pyrazol-4(1H)-one], the IC50 was found to be 15 nM in test [1], 13 nM in test [2], 12 nM in test [3] and 7900 nM in test [4]. Further, the GI50 in test [5] came out at 6.47 nM; in test [6], 20.9 nM; in test [7], 96 nM. In addition, the “MV-4-11 TGI” value in test [5] amounted to 16.1 nM. Also, in test [6], the “THP-1 TGI” value turned out to be 44.7 nM. For the same molecule, in test [7], the “K-562 TGI” value was more than 10000 nM.
